Reference: US20050281879A1, “Excipients in drug delivery vehicles” (priority 2003, published 2005)
Where a name gives a salt, the structure may show the parent alone.

Legend:
[1] = cited from earlier work
[2] = Saturation concentration of bupivacaine hydrochloride in de-ionized water; type: physicochemical; details: DI water
Method: Bupivacaine hydrochloride (Sigma-Aldrich Corporation, St. Louis, Mo.) was dissolved in de-ionized (DI) water at a concentration of 40 mg/ml (saturation). A calculated amount of sodium hydroxide (1 N solution) was added to the solution and the pH of the final mixtures was adjusted to 10 to precipitate the BP base. The precipitated product was filtered, and further washed with DI water for at least three times. The precipitated product was dried at approximately 40° C. in vacuum for 24 hours.

In the case of `CC(=O)OCC(COC(C)=O)OC(C)=O` [triacetin], the “reported solubility in water” value [1] is given as 7.17 grams in 100 ml of water.

With `CCCCN1CCCCC1C(=O)Nc1c(C)cccc1C` (centres unmarked) [Bupivacaine hydrochloride] the “concentration in de-ionized water (saturation)” value [2] was 40000 µg/mL.
